Test results published in patent publication US20150191445A1, “ACYL-HYDRAZONE AND OXADIAZOLE COMPOUNDS, PHARMACEUTICAL COMPOSITIONS CONTAINING THE SAME AND USES THEREOF” (Universidade Federal de Santa Catarina, priority 2011, published 2015).
“Also recorded” adds a separate entry of the source.

Assays:
[1] = system: REH cells; assay: MTT cytotoxicity assay, REH cell line; format: cell-based, human; details: 48 h of treatment
Experimental: (§1) All compounds were resuspended in DMSO at stock concentration of 20 mM and stored at −20° C. For cytotoxicity testing, the dilutions from the stock solutions were made in culture medium (RPMI-1640 plus 10% of fetal bovine serum, 100 IU/ml penicillin and 100 µg/mL Streptomycin), immediately before being discharged to the cells.
(§2) The REH and Jurkat cell lines were maintained in
(§3) RPMI-1640 medium with 10% FBS (fetal bovine serum), 100 IU/mL penicillin, 100 µg/mL streptomycin and incubated at 37° C. and 5% CO2. Cytotoxicity assays were performed according to the method described in the literature (Pieters, R.; et al. In vitro drug sensitivity of cells from children with leukemia using the MTT assay with improved culture conditions. Blood, 1990, 76, 2327-2336; Pieters, R.; et al. Relation of cellular drug resistance to long-term clinical outcome in childhood acute lymphoblastic leukaemia. Lancet, 1991, 338, 399-403 e Kaspers, G. J.; et al. In vitro cellular drug resistance and prognosis in newly diagnosed childhood acute lymphoblastic leukemia. Blood, 1997, 90, 2723). Cells were resuspended at a concentration of 3.75 10^5 cells/mL in culture medium as described. Eighty microliters of this suspension were seeded into plates with 96 round-bottom wells, containing 20 microliters of different concentrations of compound or vehicle alone. Each treatment was done in triplicate. After 48 hours of incubation at 37° C. and 5% CO2, 20 μL of MTT solution was added (5 mg/mL of 1x PBS), followed by further incubation for 4 hours and 30 minutes at 37° C. and 5% CO2. During these 4 hours and 30 minutes, MTT (yellowish) is metabolized to formazan salt (bluish in color) by living cells. After this, 100 μL sodium dodecyl sulphate (SDS) 10%+0.1M of HCl were added to dissolve the formazan crystals. After incubating overnight, absorbance reading at 570 nm was carried out. The percentage of cells surviving the treatment were calculated relative to the number of surviving cells in the medium without addition of the compounds in question (“negative control”).
(§4) c) Determination of IC: IC50 is defined as the concentration of a compound at which 50% of maximal inhibition is obtained. After reading the absorbance, survival curves were constructed and the values of IC50 were obtained with the GraphPad Prism software.

[2] = system: Jurkat cells; assay: MTT cytotoxicity assay, Jurkat cell line; format: cell-based, human; details: 48 h of treatment, read-out: IC50 T (Jurkat)
Experimental: as §1, §2, §3, §4

[3] = system: healthy and phytohemagglutinin-stimulated lymphocytes; assay: MTT assay on normal lymphocytes stimulated with phytohemagglutinin; format: cell-based, human; details: for Percentage of survival: 48 h, MTT
Experimental: for the test of compound 07 against normal lymphocytes, blood from human donors was separated in a ficoll gradient and the mononuclear cells were cultivated at 200,000 cells/well, in 80 microliters of RPMI-1640 (containing 10% FBS, 100 IU/mL penicillin and 100 μg/mL streptomycin) and 20 microliters of phytohemagglutinin solution (Cultilab) in each well for stimulation of T lymphocytes. Compound 07 was added in serial dilutions (50%) from 300 to 1 nm. As a control, parallel tests were run with cells from leukemic Jurkat and REH cell lines, and experiments with colchicine with the same concentrations as compound 07. Cytotoxicity was assessed after 48 hours by the MTT method, as described Above.

[4] = target: Trypanosoma cruzi cruzain (Trypanosoma cruzi, UniProt P25779); details: cited from earlier work
Trypanosoma cruzi cruzain, sequence (P25779 123-467): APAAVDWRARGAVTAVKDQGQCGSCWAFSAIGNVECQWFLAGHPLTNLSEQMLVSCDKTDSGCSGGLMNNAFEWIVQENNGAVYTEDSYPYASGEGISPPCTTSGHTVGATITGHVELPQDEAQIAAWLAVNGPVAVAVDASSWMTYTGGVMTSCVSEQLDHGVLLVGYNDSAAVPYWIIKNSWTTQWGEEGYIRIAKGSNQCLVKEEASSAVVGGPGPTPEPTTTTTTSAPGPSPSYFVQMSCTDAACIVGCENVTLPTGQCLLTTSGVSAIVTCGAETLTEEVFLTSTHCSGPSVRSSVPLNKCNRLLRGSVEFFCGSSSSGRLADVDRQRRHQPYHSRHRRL

[5] = system: human leukemic Jurkat cells and HEK; assay: Screening of compounds by cell viability assay (MTT) in leukemic cells; format: cell-based; details: leukemic cells of Jurkat and HEK strains
Experimental: RPMI-1640 medium with 10% FBS (fetal bovine serum), 100 IU/mL penicillin, 100 µg/mL streptomycin and incubated at 37° C. and 5% CO2. Cytotoxicity assays were performed according to the method described in the literature (Pieters, R.; et al. In vitro drug sensitivity of cells from children with leukemia using the MTT assay with improved culture conditions. Blood, 1990, 76, 2327-2336; Pieters, R.; et al. Relation of cellular drug resistance to long-term clinical outcome in childhood acute lymphoblastic leukaemia. Lancet, 1991, 338, 399-403 e Kaspers, G. J.; et al. In vitro cellular drug resistance and prognosis in newly diagnosed childhood acute lymphoblastic leukemia. Blood, 1997, 90, 2723). Cells were resuspended at a concentration of 3.75 10^5 cells/mL in culture medium as described. Eighty microliters of this suspension were seeded into plates with 96 round-bottom wells, containing 20 microliters of different concentrations of compound or vehicle alone. Each treatment was done in triplicate. […] After incubating overnight, absorbance reading at 570 nm was carried out. The percentage of cells surviving the treatment were calculated relative to the number of surviving cells in the medium without addition of the compounds in question (“negative control”). […]

Compound | melting point [°C] | IC50 [1] [nM] | IC50 [2] [nM] | also measured
COc1cc(C(=O)NN=Cc2ccc3c(c2)OCO3)cc(OC)c1OC [Compound 10] |  | 206 | 154 | 
COc1cc(/C=N/NC(=O)c2cc(OC)c(OC)c(OC)c2)cc(I)c1O [Compound 05] | 247 to 248 |  |  | 
COc1cc(C(=O)NN=Cc2ccc(Cl)cc2)cc(OC)c1OC [Compound 09] |  | 328 | 203 | 
Colchicine [reference compound] |  | 9.5 | 7.7 | Percentage of survival ([3]; 4.6 nM): 109%; Percentage of survival ([3]; 9.38 nM): 110%; Percentage of survival ([3]; 18.75 nM): 95%; Percentage of survival ([3]; 37.5 nM): 84%; Percentage of survival ([3]; 75 nM): 75%; Percentage of survival ([3]; 150 nM): 69%; toxicity relative to the control / inhibition on the viability of lymphocytes T ([3]; 300 nM): 37%; Percentage of survival ([3]; 300 nM): 63%
COc1cc(C(=O)N/N=C/c2ccc(Cl)c(C(F)(F)F)c2)cc(OC)c1OC [Compound 29] | 203 to 204 |  |  | 
COc1cc(C(=O)N/N=C/c2cnc[nH]2)cc(OC)c1OC [Compound 17] | 230 to 231 |  |  | 
COc1cc(C(=O)NN=Cc2ccc(C)cc2)cc(OC)c1OC [Compound 16] |  | 70.6 | 71.5 | 
COc1cc(C(=O)NN=Cc2ccc(Br)cc2)cc(OC)c1OC [Compound 02] |  | 33.7 | 31.4 | inhibitory activity of cruzain [4]: did not show inhibitory activity; antileukemic activity [5]: excellent antileukemic activity; also recorded: significant antileukemic activity
COc1cc(C(=O)NN=Cc2ccccc2Cl)cc(OC)c1OC [Compound 11] |  | 459 | 189 | 

The next lines start with results.

melting point [°C] | Compound | IC50 [1] [nM] | IC50 [2] [nM] | also measured
189 to 192 | COc1cc(C2=NN(C(C)=O)C(c3cccc4ccccc34)O2)cc(OC)c1OC (stereo not drawn) [Compound 38] |  |  | 
206 to 208 | COc1cc(C(=O)N/N=C/c2ccc(Br)cc2O)cc(OC)c1OC [Compound 26] |  |  | 
245 to 246 | COc1cccc(OC)c1/C=N/NC(=O)c1cc(OC)c(OC)c(OC)c1 [Compound 21] |  |  | 
177 to 179 | COc1cc(C2OC(c3cc(OC)c(OC)c(OC)c3)=NN2C(C)=O)cc(Br)c1O (stereo not drawn) [Compound 36] |  |  | 
170 to 172 | COc1cc(C2OC(c3cc(OC)c(OC)c(OC)c3)=NN2C(C)=O)ccc1O (stereo not drawn) [Compound 37] |  |  | 
